≈ marks a conversion by molar mass, not a printed value. Calls of active or inactive are those of the source. The calls are words filed in the database; no cut-off is given here.
What was measured:
[1] = Thermodynamic (equilibrium) solubility of the compound measured after 3 days agitation in pH 7 buffer by LC-MS/MS analysis; format: physicochemical; details: time 3 day, read-out: Therm_solubility
Cytochrome P450 2C9 = Cytochrome P450 2C9 (Homo sapiens, UniProt P11712); assay: Inhibition of human CYP2C9 assessed as fluorescent metabolites by CYP450 inhibition assay; format: ADME
Chain of Cytochrome P450 2C9 (P11712 whole entry): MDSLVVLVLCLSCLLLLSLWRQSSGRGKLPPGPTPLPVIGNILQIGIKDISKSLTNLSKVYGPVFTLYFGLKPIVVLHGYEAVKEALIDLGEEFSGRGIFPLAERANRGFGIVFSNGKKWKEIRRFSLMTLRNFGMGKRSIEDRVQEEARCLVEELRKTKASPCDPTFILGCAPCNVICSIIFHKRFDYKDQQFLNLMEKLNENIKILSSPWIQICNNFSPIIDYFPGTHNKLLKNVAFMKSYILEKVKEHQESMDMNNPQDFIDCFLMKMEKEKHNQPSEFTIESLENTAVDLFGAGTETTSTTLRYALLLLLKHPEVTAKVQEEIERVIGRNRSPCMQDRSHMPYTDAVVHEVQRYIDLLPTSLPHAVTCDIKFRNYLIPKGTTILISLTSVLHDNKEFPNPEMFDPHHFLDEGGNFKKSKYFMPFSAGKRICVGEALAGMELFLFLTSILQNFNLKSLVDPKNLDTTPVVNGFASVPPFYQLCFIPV

MOLP-8 = assay: Induction apoptosis in human MOLP8 cells assessed as cell killing measured after 2 hrs by Caspase-Glo 3/7 Assay; format: functional, cell-based; details: MOLP-8, 2 h
[2] = Cardiotoxicity risk in human iPSC-CM assessed as calcium transients at 3 uM by CTCM assay; format: toxicity, cell-based
[3] = Cardiotoxicity risk in human iPSC-CM assessed as calcium transients at 1 uM by CTCM assay; format: toxicity, cell-based
[4] = Lipophilicity, CHI logD of compound at pH 7.4 by UPLC-TOF analysis; format: physicochemical; details: buffer
Cytochrome P450 2D6 = Cytochrome P450 2D6 (Homo sapiens, UniProt P10635); assay: Inhibition of human CYP2D6 assessed as fluorescent metabolites by CYP450 inhibition assay; format: ADME
Chain of Cytochrome P450 2D6 (P10635 whole entry): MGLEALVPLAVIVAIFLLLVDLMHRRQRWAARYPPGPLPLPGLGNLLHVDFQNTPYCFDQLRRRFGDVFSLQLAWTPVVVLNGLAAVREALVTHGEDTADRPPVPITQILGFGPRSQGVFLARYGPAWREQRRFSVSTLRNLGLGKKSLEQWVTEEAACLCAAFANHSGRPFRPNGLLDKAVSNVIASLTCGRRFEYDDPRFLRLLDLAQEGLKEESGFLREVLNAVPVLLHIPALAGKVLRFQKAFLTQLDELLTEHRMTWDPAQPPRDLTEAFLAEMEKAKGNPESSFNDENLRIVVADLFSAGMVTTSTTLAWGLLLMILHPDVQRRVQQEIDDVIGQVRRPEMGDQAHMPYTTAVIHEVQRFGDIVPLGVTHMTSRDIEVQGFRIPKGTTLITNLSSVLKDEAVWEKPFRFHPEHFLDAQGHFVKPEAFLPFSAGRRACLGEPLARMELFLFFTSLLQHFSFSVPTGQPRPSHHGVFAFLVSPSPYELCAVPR

[5] = Inhibition of terbium-labelled Mcl-1 (unknown origin)/Bim BH3 peptide (H3N-(C/Cy5Mal)-WIAQELRRIGDEFN-OH) (unknown origin) interaction assessed as displacement of Cy5-labeled Bim BH3 peptide by TR-HTRF assay
CYP1A2 [6] = target: T1, CYP1A2 (Homo sapiens, UniProt P05177); assay: Induction of human CYP1A2 assessed as fold change at 10 uM by CYP450 induction assay; format: ADME; details: read-out: FC
T1 sequence (P05177 whole entry): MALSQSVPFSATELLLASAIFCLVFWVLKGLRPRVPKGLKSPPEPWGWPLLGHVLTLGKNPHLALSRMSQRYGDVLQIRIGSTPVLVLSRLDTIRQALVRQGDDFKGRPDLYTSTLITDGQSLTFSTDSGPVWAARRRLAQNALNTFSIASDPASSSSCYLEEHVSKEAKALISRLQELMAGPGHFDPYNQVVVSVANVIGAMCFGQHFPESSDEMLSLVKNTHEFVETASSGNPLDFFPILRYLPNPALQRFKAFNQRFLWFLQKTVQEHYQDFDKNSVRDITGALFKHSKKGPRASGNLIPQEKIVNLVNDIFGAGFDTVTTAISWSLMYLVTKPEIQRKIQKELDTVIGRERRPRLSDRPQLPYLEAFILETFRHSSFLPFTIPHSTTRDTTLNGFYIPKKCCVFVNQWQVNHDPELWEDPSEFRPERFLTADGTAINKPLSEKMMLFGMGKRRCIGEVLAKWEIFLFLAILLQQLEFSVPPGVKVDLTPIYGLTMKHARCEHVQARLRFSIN

Cytochrome P450 2C19 = Cytochrome P450 2C19 (Homo sapiens, UniProt P33261); assay: Inhibition of human CYP2C19 assessed as fluorescent metabolites by CYP450 inhibition assay; format: ADME
Chain of Cytochrome P450 2C19 (P33261 whole entry): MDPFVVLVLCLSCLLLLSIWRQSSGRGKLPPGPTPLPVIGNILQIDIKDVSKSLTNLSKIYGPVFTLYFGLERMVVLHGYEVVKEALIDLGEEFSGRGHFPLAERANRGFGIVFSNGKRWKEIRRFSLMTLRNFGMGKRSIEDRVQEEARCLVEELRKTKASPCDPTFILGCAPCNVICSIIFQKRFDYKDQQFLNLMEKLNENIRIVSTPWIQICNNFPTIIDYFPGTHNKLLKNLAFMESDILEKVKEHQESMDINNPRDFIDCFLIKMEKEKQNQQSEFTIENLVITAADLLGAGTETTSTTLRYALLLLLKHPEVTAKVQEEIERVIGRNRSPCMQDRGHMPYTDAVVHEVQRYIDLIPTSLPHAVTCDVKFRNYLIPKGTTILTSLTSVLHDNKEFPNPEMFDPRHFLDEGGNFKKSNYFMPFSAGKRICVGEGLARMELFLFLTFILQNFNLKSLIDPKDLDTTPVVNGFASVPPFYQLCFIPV

CYP3A4 [7] = target: T2, CYP3A4 (Homo sapiens, UniProt P08684); assay: Induction of human CYP3A4 assessed as fold change at 1 uM by CYP450 induction assay; format: ADME; details: read-out: FC
T2 sequence (P08684 whole entry): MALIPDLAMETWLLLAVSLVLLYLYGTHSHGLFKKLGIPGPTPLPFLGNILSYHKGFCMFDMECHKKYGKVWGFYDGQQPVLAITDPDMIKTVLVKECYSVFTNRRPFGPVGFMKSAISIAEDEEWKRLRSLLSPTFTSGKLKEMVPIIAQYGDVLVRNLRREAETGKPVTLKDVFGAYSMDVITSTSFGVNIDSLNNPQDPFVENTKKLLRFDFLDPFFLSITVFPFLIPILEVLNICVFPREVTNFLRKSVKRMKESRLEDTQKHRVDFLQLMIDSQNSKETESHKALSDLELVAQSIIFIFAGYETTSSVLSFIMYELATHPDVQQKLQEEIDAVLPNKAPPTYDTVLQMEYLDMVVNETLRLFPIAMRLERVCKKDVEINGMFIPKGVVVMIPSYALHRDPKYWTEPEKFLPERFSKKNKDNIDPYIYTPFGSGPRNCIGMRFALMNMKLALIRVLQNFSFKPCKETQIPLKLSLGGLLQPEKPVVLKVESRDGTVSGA

[8] = Intrinsic clearance in mouse liver microsomes measured upto 60 mins by LC-MS/MS analysis; format: ADME, Microsome; details: read-out: CLH
[9] = Fraction unbound in mouse plasma at 5 uM incubated for 4.5 hrs by rapid equilibrium dialysis; format: ADME, cell-free
Cytochrome P450 1A2 = target: T3, Cytochrome P450 1A2 (Homo sapiens, UniProt P05177); assay: Inhibition of human CYP1A2 assessed as fluorescent metabolites by CYP450 inhibition assay; format: ADME
T3 sequence (P05177 whole entry): T1 sequence (P05177 whole entry)

[10] = Intrinsic clearance in human liver microsomes measured upto 60 mins by LC-MS/MS analysis; format: ADME, Microsome; details: read-out: CLH
[11] = Thermodynamic (equilibrium) solubility of the compound measured after 3 days agitation in pH 2 buffer by LC-MS/MS analysis; format: physicochemical; details: time 3 day, read-out: Therm_solubility
[12] = Fraction unbound in human plasma at 5 uM incubated for 4.5 hrs by rapid equilibrium dialysis; format: ADME, cell-free
[13] = Cmax in CD1 mouse at 5 mg/kg, po administered as bolus dose; format: ADME, organism-based; set-up: dose 5 mg/kg, route po; details: in vivo
[14] = Hepatic intrinsic clearance in human hepatocytes measured per 10^6 cells at 1 uM measured upto 120 mins by LC-MS/MS analysis; format: ADME, cell-based, Hepatocyte; details: read-out: CLH
[15] = Tmax in CD1 mouse at 5 mg/kg, po administered as bolus dose; format: ADME, organism-based; details: in vivo
[16] = Metabolic stability in human hepatocytes assessed as half life at 1 uM measured by LC-MS/MS analysis; format: ADME, cell-based, Hepatocyte
[17] = Cardiotoxicity risk in human iPSC-CM assessed as calcium transients at 0.1 uM by CTCM assay; format: toxicity, cell-based
CYP3A4 [18] = target: T2, CYP3A4; assay: Induction of human CYP3A4 assessed as fold change at 10 uM by CYP450 induction assay; format: ADME; details: read-out: FC
[19] = Volume of distribution at steady state in CD1 mouse at 1 mg/kg, iv administered as bolus dose; format: ADME, organism-based; details: in vivo, read-out: Vdss
[20] = AUClast in CD1 mouse at 5 mg/kg, po administered as bolus dose; format: ADME, organism-based; set-up: dose 5 mg/kg, route po; details: in vivo
MOLM-13 [21] = assay: In vivo inhibition of Mcl-1 in human MOLM-13 cells sc implanted in NSG mouse assessed as disruption of Mcl-1/Bak complex in tumor at 10 mg/kg, po; format: functional, organism-based
[22] = Oral bioavailability in CD1 mouse at 5 mg/kg administered as bolus dose; format: ADME, organism-based; details: in vivo
[23] = Clearance in CD1 mouse at 1 mg/kg, iv administered as bolus dose; format: ADME, organism-based; details: in vivo
[24] = Fraction absorbed in CD1 mouse at 5 mg/kg, po administered as bolus dose; format: ADME, organism-based; details: in vivo, read-out: Fabs
[25] = Cardiotoxicity risk in human iPSC-CM assessed as calcium transients at 0.3 uM by CTCM assay; format: toxicity, cell-based
[26] = Hepatic intrinsic clearance in Swiss CD-1 mouse hepatocytes measured per 10^6 cells at 1 uM measured upto 120 mins by LC-MS/MS analysis; format: ADME, cell-based, Hepatocyte; details: read-out: CLH
CYP1A2 [27] = target: T1, CYP1A2; assay: Induction of human CYP1A2 assessed as fold change at 1 uM by CYP450 induction assay; format: ADME; details: read-out: FC
Cytochrome P450 2C8 = target: T4, Cytochrome P450 2C8 (Homo sapiens, UniProt P10632); assay: Inhibition of human CYP2C8 assessed as fluorescent metabolites by CYP450 inhibition assay; format: ADME
T4 sequence (P10632 whole entry): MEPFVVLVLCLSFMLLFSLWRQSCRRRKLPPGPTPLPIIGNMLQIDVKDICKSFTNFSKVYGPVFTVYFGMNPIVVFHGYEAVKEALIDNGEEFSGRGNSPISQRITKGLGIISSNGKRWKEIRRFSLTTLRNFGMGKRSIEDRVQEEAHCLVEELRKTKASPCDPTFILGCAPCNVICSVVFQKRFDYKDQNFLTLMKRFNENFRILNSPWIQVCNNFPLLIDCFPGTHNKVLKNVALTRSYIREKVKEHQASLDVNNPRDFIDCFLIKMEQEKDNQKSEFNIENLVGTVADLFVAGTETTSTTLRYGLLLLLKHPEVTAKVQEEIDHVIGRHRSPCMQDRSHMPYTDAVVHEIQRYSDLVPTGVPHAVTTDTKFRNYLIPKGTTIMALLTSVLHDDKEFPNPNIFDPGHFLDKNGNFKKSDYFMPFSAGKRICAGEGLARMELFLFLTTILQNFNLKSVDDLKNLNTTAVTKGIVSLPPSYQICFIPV

[28] = Metabolic stability in Swiss CD-1 mouse hepatocytes assessed as half life at 1 uM measured by LC-MS/MS analysis; format: ADME, cell-based, Hepatocyte
[29] = Half life in CD1 mouse at 1 mg/kg, iv administered as bolus dose; format: ADME, organism-based; details: in vivo
[30] = Initial plasma concentration in CD1 mouse at 1 mg/kg, iv administered as bolus dose; format: ADME, organism-based
MOLM-13 [31] = assay: In vivo inhibition of Mcl-1 in human MOLM-13 cells sc implanted in NSG mouse assessed as disruption of Mcl-1/Bim complex in tumor at 10 mg/kg, po; format: functional, organism-based
[32] = Toxicity in NSG mouse xenografted with human MOLM-13 cells at 10 mg/kg, po; format: organism-based; details: in vivo

COc1nn(C)cc1C(=O)N[S@@]1(=O)=NC(=O)c2ccc3c(c2)N(C[C@@H]2CCO[C@H]2[C@@](CN2CCN4CCOC[C@@H]4C2)(OC)/C(F)=C/C[C@H](C)C1)C[C@@]1(CCCc2cc(Cl)ccc21)CO3
solubility thermodynamic at 72 h [1]: 561 µM (≈ 519 µg/mL) | inhibition (INH) (Cytochrome P450 2C9): Not Active | AC50 (MOLP-8): 23.2 nM | Activity [2]: Non-Toxic | Activity [3]: Non-Toxic | chromatographic logD [4]: 2.9 | inhibition (INH) (Cytochrome P450 2D6): Not Active | Ki [5]: 0.011 nM | fold induction at 10 µM (CYP1A2 [6]): 1.1 | inhibition (INH) (Cytochrome P450 2C19): Not Active | fold induction at 1 µM (CYP3A4 [7]): 1 | microsomal CLint [8]: < 7.7 µL/min/mg | Fu [9]: 0.08% | inhibition (INH) (Cytochrome P450 1A2): Not Active | microsomal CLint [10]: < 7.7 µL/min/mg | solubility thermodynamic at 72 h [11]: 516 µM (≈ 477 µg/mL) | Fu [12]: 0.11%

COc1nn(C)cc1C(=O)N[S@@]1(=O)=NC(=O)c2ccc3c(c2)N(C[C@@H]2CCO[C@H]2[C@@H](OC)/C(F)=C/C[C@H](C)C1)C[C@@]1(CCCc2cc(Cl)ccc21)CO3
Cmax [13]: 578 ng/mL | hepatocyte CLint at 1 µM [14]: 1.99 µL/min/1e6 cells | Tmax [15]: 2.33 h | solubility thermodynamic at 72 h [1]: 520 µM (≈ 401 µg/mL) | t1/2 [16]: 5.8 h | Activity [17]: Non-Toxic | inhibition (INH) (Cytochrome P450 2C9): Not Active | fold induction at 10 µM (CYP3A4 [18]): 4.4 | AC50 (MOLP-8): 44 nM | Activity [2]: Non-Toxic | Activity [3]: Non-Toxic | chromatographic logD [4]: 3 | Vd [19]: 3.01 L/kg | AUC(0-t) [20]: 2520 ng·h/mL | inhibition (INH) (Cytochrome P450 2D6): Not Active | inhibition (MOLM-13 [21]): Active | Ki [5]: 0.011 nM | bioavailability [22]: 78% | clearance [23]: 25 mL/min/kg | Fa [24]: 99% | inhibition (INH) (Cytochrome P450 2C19): Not Active | Activity [25]: Non-Toxic | hepatocyte CLint at 1 µM [26]: < 1.24 µL/min/1e6 cells | fold induction at 1 µM (CYP1A2 [27]): 0.95 | fold induction at 1 µM (CYP3A4 [7]): 1.3 | IC50 (Cytochrome P450 2C8): 5.01 µM | microsomal CLint [8]: 15 µL/min/mg | Fu [9]: 0.02% | inhibition (INH) (Cytochrome P450 1A2): Not Active | microsomal CLint [10]: < 7.7 µL/min/mg | half-life at 1 µM [28]: > 560 min | solubility thermodynamic at 72 h [11]: < 0.1 µM | half-life [29]: 109 min | C0 [30]: 574 ng/mL | inhibition (MOLM-13 [31]): Active | Fu [12]: 0.05% | Activity [32]: Non-Toxic

Source: ChEMBL document CHEMBL5380869, “Discovery of an Oral, Beyond-Rule-of-Five Mcl-1 Protein-Protein Interaction Modulator with the Potential of Treating Hematological Malignancies” (J Med Chem, 2023)
